Assay results published in patent US10172358B2, “Thiopicolinamide compounds with fungicidal activity” (Dow AgroSciences LLC, priority 2016, dated 2019).
Like-named read-outs stand apart in the source and are kept apart here.

Assays:
Zymoseptoria tritici = assay: Fungicidal activity: leaf blotch of wheat (SEPTTR), disease control on wheat seedlings; assay type: in vivo, Zymoseptoria tritici on wheat plants (variety Yuma); conditions: for pest or weed control at 100 ppm: high volume application; for pest or weed control at 121.5 g/ha: low volume application, 121.5 g/H
Description: Evaluation of Fungicidal Activity: Leaf Blotch of Wheat (Zymoseptoria Tritici; Bayer Code […]) Technical grades of materials were dissolved in acetone, which were then mixed with nine volumes of water (H2O) containing 110 ppm Triton X-100. The fungicide solutions were applied onto wheat seedlings using an automated booth sprayer to run-off. All sprayed plants were allowed to air dry prior to further handling. All fungicides were evaluated using the aforementioned method for their activity vs. all target diseases, unless stated otherwise. Wheat leaf blotch and brown rust activity were also evaluated using track spray applications, in which case the fungicides were formulated as EC formulations, containing 0.1% Trycol 5941 in the spray solutions. Wheat plants (variety Yuma) were grown from seed in a greenhouse in 50% mineral soil/50% soil-less Metro mix until the first leaf was fully emerged, with 7-10 seedlings per pot. These plants were inoculated with an aqueous spore suspension of Zymoseptoria tritici either prior to or after fungicide treatments. After inoculation the plants were kept in 100% relative humidity (one day in a dark dew chamber followed by two to three days in a lighted dew chamber at 20° C.) to permit spores to germinate and infect the leaf. The plants were then transferred to a greenhouse set at 20° C. for disease to develop. When disease symptoms were fully expressed on the 1st leaves of untreated plants, infection levels were assessed on a scale of 0 to 100 percent disease severity. Percent disease control was calculated using the ratio of disease severity on treated plants relative to untreated plants.

Puccinia triticina = assay: Fungicidal activity: wheat brown rust (PUCCRT), disease control on wheat seedlings; assay type: in vivo, Puccinia triticina on wheat plants (variety Yuma); conditions: for pest or weed control at 100 ppm: high volume application; for pest or weed control at 121.5 g/ha: low volume application, 121.5 g/H
Description: Technical grades of materials were dissolved in acetone, which were then mixed with nine volumes of water (H2O) containing 110 ppm Triton X-100. The fungicide solutions were applied onto wheat seedlings using an automated booth sprayer to run-off. All sprayed plants were allowed to air dry prior to further handling. All fungicides were evaluated using the aforementioned method for their activity vs. all target diseases, unless stated otherwise. Wheat leaf blotch and brown rust activity were also evaluated using track spray applications, in which case the fungicides were formulated as EC formulations, containing 0.1% Trycol 5941 in the spray solutions. Evaluation of Fungicidal Activity: Wheat Brown Rust (Puccinia triticina; Synonym: Puccinia recondita f. Sp. Tritici; Bayer Code PUCCRT) Wheat plants (variety Yuma) were grown from seed in a greenhouse in 50% mineral soil/50% soil-less Metro mix until the first leaf was fully emerged, with 7-10 seedlings per pot. These plants were inoculated with an aqueous spore suspension of Puccinia triticina either prior to or after fungicide treatments. After inoculation the plants were kept in a dark dew room at 22° C. with 100% relative humidity overnight to permit spores to germinate and infect the leaf. The plants were then transferred to a greenhouse set at 24° C. for disease to develop. Fungicide formulation, application and disease assessment followed the procedures as described in the Example A. The results of the evalution are shown below in Table 4.

[1] = 24 h, 1 day protectant, read-out: SEPTTR 1DP disease control, HV activity at 100 ppm
[2] = 72 h, 3 day curative, read-out: SEPTTR 3DC disease control, HV activity at 100 ppm
[3] = 24 h, 1 day protectant, read-out: PUCCRT 1DP disease control, HV activity at 100 ppm
[4] = 72 h, 3 day curative, read-out: PUCCRT 3DC disease control, HV activity at 100 ppm
[5] = 24 h, 1 day protectant, read-out: SEPTTR 1DP disease control, LV activity at 121.5 g/H
[6] = 72 h, 3 day curative, read-out: SEPTTR 3DC disease control, LV activity at 121.5 g/H
[7] = 24 h, 1 day protectant, read-out: PUCCRT 1DP disease control, LV activity at 121.5 g/H
[8] = 72 h, 3 day curative, read-out: PUCCRT 3DC disease control, LV activity at 121.5 g/H

Compound	pest or weed control at 100 ppm (Zymoseptoria tritici; [1])	pest or weed control at 100 ppm (Zymoseptoria tritici; [2])	pest or weed control at 100 ppm (Puccinia triticina; [3])	pest or weed control at 100 ppm (Puccinia triticina; [4])	pest or weed control at 121.5 g/ha (Zymoseptoria tritici; [5])	pest or weed control at 121.5 g/ha (Zymoseptoria tritici; [6])	pest or weed control at 121.5 g/ha (Puccinia triticina; [7])	pest or weed control at 121.5 g/ha (Puccinia triticina; [8])
COc1ccnc(C(=S)N[C@@H](C)C(=O)O[C@H](C(C)C)[C@H](C)Oc2ccc(C)cc2)c1O [Compound 1]	≤ 80%	≤ 80%	> 80%	> 80%	–	–	–	–
COc1ccnc(C(=S)N[C@@H](C)C(=O)O[C@@H](C)C(c2ccc(Cl)cc2)c2ccc(Cl)cc2)c1O [Compound 2]	> 80%	> 80%	> 80%	–	–	–	–	–
COc1ccnc(C(=S)N[C@@H](C)C(=O)O[C@@H](C)C(c2ccc(C)cc2C)c2ccc(C)cc2C)c1O [Compound 3]	> 80%	> 80%	> 80%	–	–	–	–	–
COc1ccnc(C(=S)N[C@@H](C)C(=O)O[C@@H](C)[C@@H](c2ccccc2)c2ccc(F)cc2)c1O [Compound 4]	> 80%	> 80%	> 80%	–	–	–	–	–
COc1ccc(C(c2ccc(OC)cc2F)[C@H](C)OC(=O)[C@H](C)NC(=S)c2nccc(OC)c2O)c(F)c1 [Compound 5]	> 80%	> 80%	> 80%	–	–	–	–	–
COc1ccnc(C(=S)N[C@@H](C)C(=O)O[C@@H](C)[C@@H](c2ccc(C)cc2)c2ccc(F)cc2C)c1O [Compound 6]	> 80%	> 80%	> 80%	≤ 80%	–	–	–	–
COc1ccnc(C(=S)N[C@@H](C)C(=O)O[C@H](C)C(c2ccc(F)cc2)c2ccc(F)cc2)c1O [Compound 7]	≤ 80%	–	≤ 80%	–	–	–	–	–
CCCCC[C@@H](OC(=O)[C@H](C)NC(=S)c1nccc(OC)c1O)[C@H](C)Oc1ccccc1 [Compound 8]	≤ 80%	≤ 80%	> 80%	–	–	–	–	–
COc1ccnc(C(=S)N[C@@H](C)C(=O)O[C@@H](C)[C@H](Oc2ccc(Cl)cc2Cl)c2ccccc2)c1O [Compound 9]	> 80%	> 80%	> 80%	–	–	–	–	–
CCCCC[C@H](OC(=O)[C@H](C)NC(=S)c1nccc(OC)c1O)[C@@H](C)Oc1ccccc1 [Compound 10]	–	–	≤ 80%	–	–	–	–	–
COc1ccc(O[C@@H](C)[C@H](OC(=O)[C@H](C)NC(=S)c2nccc(OC)c2O)C(C)C)cc1 [Compound 11]	> 80%	≤ 80%	> 80%	> 80%	–	–	–	–
COc1cc(F)ccc1[C@H](c1ccccc1)[C@H](C)OC(=O)[C@H](C)NC(=S)c1nccc(OC)c1O [Compound 12]	> 80%	≤ 80%	> 80%	≤ 80%	–	–	–	–
COc1ccccc1C(c1ccccc1OC)[C@H](C)OC(=O)[C@H](C)NC(=S)c1nccc(OC)c1O [Compound 13]	> 80%	> 80%	> 80%	≤ 80%	–	–	–	–
COc1cc(Cl)ccc1C(c1ccc(Cl)cc1OC)[C@H](C)OC(=O)[C@H](C)NC(=S)c1nccc(OC)c1O [Compound 14]	> 80%	> 80%	> 80%	≤ 80%	–	–	–	–
COc1ccnc(C(=S)N[C@H](C)C(=O)O[C@@H](C)C(c2ccc(F)cc2)c2ccc(F)cc2)c1O [Compound 15]	> 80%	–	–	–	–	–	–	–
C=CC[C@@H](Oc1ccccc1)[C@H](C)OC(=O)[C@H](C)NC(=S)c1nccc(OC)c1O [Compound 16]	> 80%	≤ 80%	> 80%	> 80%	–	–	–	–

Compound	pest or weed control at 100 ppm (Zymoseptoria tritici; [1])	pest or weed control at 100 ppm (Zymoseptoria tritici; [2])	pest or weed control at 100 ppm (Puccinia triticina; [3])	pest or weed control at 100 ppm (Puccinia triticina; [4])	pest or weed control at 121.5 g/ha (Zymoseptoria tritici; [5])	pest or weed control at 121.5 g/ha (Zymoseptoria tritici; [6])	pest or weed control at 121.5 g/ha (Puccinia triticina; [7])	pest or weed control at 121.5 g/ha (Puccinia triticina; [8])
COc1ccnc(C(=S)N[C@@H](C)C(=O)O[C@@H](C)[C@H](Oc2ccc(Cl)cc2)C(C)C)c1O [Compound 17]	≤ 80%	–	> 80%	–	–	–	–	–
COc1cc(F)ccc1[C@H](c1ccc(C)cc1)[C@H](C)OC(=O)[C@H](C)NC(=S)c1nccc(OC)c1O [Compound 18]	> 80%	> 80%	> 80%	> 80%	–	–	–	–
COc1ccnc(C(=S)N[C@@H](C)C(=O)O[C@H](C(C)C)[C@H](C)Oc2ccccc2)c1O [Compound 19]	> 80%	–	> 80%	> 80%	–	–	–	–
COc1ccnc(C(=S)N[C@@H](C)C(=O)O[C@@H](C)C(c2ccc(C)cc2)c2ccc(C)cc2)c1O [Compound 20]	> 80%	> 80%	> 80%	≤ 80%	–	–	–	–
COc1ccnc(C(=S)N[C@@H](C)C(=O)O[C@H](CC(C)C)[C@H](C)Oc2ccccc2)c1O [Compound 21]	≤ 80%	≤ 80%	–	–	–	–	–	–
COc1ccnc(C(=S)N[C@@H](C)C(=O)O[C@@H](C)[C@H](Oc2ccccc2Cl)c2ccccc2)c1O [Compound 22, (1R,2S)-1-(2-chlorophenoxy)-1-phenylpropan-2-yl (3-hydroxy-4-methoxypyridine-2-carbonothioyl)-L-alaninate]	> 80%	≤ 80%	> 80%	≤ 80%	–	–	–	–
CCC[C@H](OC(=O)[C@H](C)NC(=S)c1nccc(OC)c1O)[C@@H](C)Oc1ccccc1 [Compound 34]	≤ 80%	–	–	–	–	–	–	–
COc1ccnc(C(=S)N[C@@H](C)C(=O)O[C@@H](C)C(c2ccc(F)cc2)c2ccc(F)cc2)c1O [Compound 39]	> 80%	> 80%	≤ 80%	≤ 80%	–	–	–	–
CCCCC[C@@H](OC(=O)[C@H](C)NC(=S)c1nccc(OC)c1CC(C)=O)[C@H](C)Oc1ccccc1 [Compound 41]	–	–	–	–	> 80%	> 80%	> 80%	> 80%
CCCCC[C@H](OC(=O)[C@H](C)NC(=S)c1nccc(OC)c1OC(C)=O)[C@@H](C)Oc1ccccc1 [Compound 42]	–	–	–	–	≤ 80%	–	≤ 80%	≤ 80%
COc1ccnc(C(=S)N[C@@H](C)C(=O)O[C@@H](C)[C@H](Oc2ccc(Cl)cc2)C(C)C)c1OC(C)=O [Compound 43]	–	–	–	–	> 80%	≤ 80%	> 80%	> 80%
COc1cc(F)ccc1[C@H](c1ccccc1)[C@H](C)OC(=O)[C@H](C)NC(=S)c1nccc(OC)c1OC(C)=O [Compound 44]	–	–	–	–	> 80%	> 80%	> 80%	≤ 80%
COc1cc(F)ccc1[C@H](c1ccc(C)cc1)[C@H](C)OC(=O)[C@H](C)NC(=S)c1nccc(OC)c1OC(C)=O [Compound 45]	–	–	–	–	> 80%	> 80%	> 80%	> 80%
COc1ccnc(C(=S)N[C@@H](C)C(=O)O[C@@H](C)[C@@H](c2ccc(C)cc2)c2ccc(F)cc2C)c1OC(C)=O [Compound 46]	–	–	–	–	> 80%	> 80%	> 80%	> 80%
COc1ccnc(C(=S)N[C@@H](C)C(=O)O[C@H](C)C(c2ccc(F)cc2)c2ccc(F)cc2)c1OC(C)=O [Compound 55]	–	–	–	–	≤ 80%	–	–	–
